Experimental data reported in US20220152093A1, “OPTIMIZED NUTRIENT SALT COMPOSITION” (priority 2018, published 2022).

Test system: tender mangoes
Test: Preservation of tender mangoes in salt solution, 45 days at room temperature
Conditions: common salt solution 2.5%, optimized nutrient salt solution 5% (matching saltiness), 25 to 35 degree centigrade
Description: Two sets of 1000 gm tender mangoes were put in two separate sterile glass bottles. First bottle was filled with common salt solution up to the neck of the bottle and the second bottle was filled with optimized nutrient salt solution prepared by a process as given in example 1 of matching saltiness. Saltiness of optimized nutrient salt is only half of common salt. While the common salt solution used was 2.5% and the optimized nutrient salt solution was 5%. Bottle closed with cap and kept for seasoning for 45 days in room temperature around 25 to 35 degree centigrade.

In the case of `[Cl-].[Na+]` [common salt], the “fungal growth at the surface of the solution” value is reported as “thin layer of fungal growth”.
